Measured values as given in patent US20240302368A1, “MIGRATION OF HUMAN PERIPHERAL LEUKOCYTES IN RESPONSE TO CHEMOTACTIC FACTORS DURING PREGNACY” (The Governors of the University of Alberta, priority 2021, published 2024).

How the values were obtained:
[1] = target: T1, CCR1 (Homo sapiens, UniProt P32246); assay: Term leukocyte chemotaxis towards TL homogenized extracts (LMA), CCR1 inhibition; type: cell-based; conditions: increasing concentrations, FIG. 18
T1 construct: Whole blood is collected from a pregnant person into an EDTA-coated collection tube; endogenous in cells; host or cells: total peripheral leukocytes from pregnant women in term labour
T1 sequence (P32246 1-355): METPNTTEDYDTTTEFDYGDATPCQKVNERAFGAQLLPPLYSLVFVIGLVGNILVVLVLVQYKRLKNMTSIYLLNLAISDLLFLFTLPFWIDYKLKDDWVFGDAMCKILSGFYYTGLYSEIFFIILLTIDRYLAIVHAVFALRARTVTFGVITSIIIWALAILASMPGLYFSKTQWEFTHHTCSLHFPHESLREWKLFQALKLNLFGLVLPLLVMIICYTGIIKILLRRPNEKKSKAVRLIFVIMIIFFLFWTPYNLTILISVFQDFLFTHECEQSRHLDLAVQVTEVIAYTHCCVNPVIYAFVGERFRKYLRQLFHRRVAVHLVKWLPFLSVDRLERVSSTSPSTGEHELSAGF
Description: (§1) Chemotaxis Assay: Chemoattractants (50 μL) are loaded into the lower wels of a simple, resin 3D printed, 3-well chemotaxis chamber and a polycarbonate filter with 3 μm pores (Neuro Probe Inc., MD, USA) is placed on top of the wells. A silicone gasket with holes for each well is positioned on top of the filter and the upper chamber is lowered onto the silicone gasket, creating a tight seal. Total leukocytes (100 μL) are loaded into the wells of the upper chamber and the apparatus is incubated at 90 min at 37 C in 5% CO2. The apparatus is then disassembled and leukocytes that have migrated through the filter into the lower chamber are quantified using a hemocytometer, flow cytometry or fluorescence spectrometry.
(§2) We will use SB 225002 (CXCR2 antagonist) and J 113863 (CCR1 antagonist), which are commercially available from RND Systems for around USD 200 each. A time course and kinetics experiment will be performed for each antagonist to optimize incubation length and concentration. TL leukocytes (n=6) will be inhibited with each antagonist using these optimized parameters, and the resulting number of leukocytes that undergo chemotaxis to TL chemoattractant in our LMA will be compared to control (i.e. non-treated leukocytes).

[2] = target: T2, CXCR2 (Homo sapiens, UniProt P25025); assay: Term leukocyte chemotaxis towards TL homogenized extracts (LMA), CXCR2 inhibition; type: cell-based; conditions: increasing concentrations, FIG. 18
T2 construct: Whole blood is collected from a pregnant person into an EDTA-coated collection tube; endogenous in cells; host or cells: total peripheral leukocytes from pregnant women in term labour
T2 sequence (P25025 1-360): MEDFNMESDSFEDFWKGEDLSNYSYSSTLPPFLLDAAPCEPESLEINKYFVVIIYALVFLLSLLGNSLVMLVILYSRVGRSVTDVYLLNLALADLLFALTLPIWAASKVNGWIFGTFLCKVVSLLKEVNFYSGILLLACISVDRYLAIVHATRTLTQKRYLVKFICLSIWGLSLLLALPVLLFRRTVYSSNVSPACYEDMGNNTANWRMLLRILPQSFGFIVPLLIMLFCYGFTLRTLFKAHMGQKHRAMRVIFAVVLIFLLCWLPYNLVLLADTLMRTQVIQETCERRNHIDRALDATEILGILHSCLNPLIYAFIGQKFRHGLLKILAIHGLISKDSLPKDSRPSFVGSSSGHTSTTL
Description: as §1, §2

Structure (SMILES)	term leukocyte migration [1]	term leukocyte migration [2]
CC[N+]1(C/C2=C/CCCCCC2)CCC(NC(=O)C2c3cc(Cl)ccc3Oc3ccc(Cl)cc32)CC1.[I-] (centres unmarked) [J113863]	decrease leukocyte migration	
O=C(Nc1ccc([N+](=O)[O-])cc1O)Nc1ccccc1Br [SB225002]		decrease leukocyte migration
